Earlier results, collected in patent US6491946B1, “Pharmaceutical levothyroxine preparation” (Merck Patent Gesellschaft, priority 1998, dated 2002).
Read-outs that look alike come from different tables or passages of the source.

Solubility (in ethanol): soluble with great difficulty | Solubility (in water): soluble with great difficulty
SMILES: N[C@@H](Cc1cc(I)c(Oc2cc(I)c(O)c(I)c2)c(I)c1)C(=O)O [Levothyroxine sodium, levothyroxine sodium]
